Experimental findings from patent publication US8183005B1, “Pharmaceutical agents for treating HCV infections” (priority 2004, dated 2012) are described below.

Type in all cases: cell-based
For series [1], the system named is HCV replicon. Briefly: HCV replicon assay (luciferase). The note with it: for IC50: firefly luciferase HCV replicon cells (Huh-3-1), cultured three days with compound; for HCV replication (replicon activity) versus viable cell count: HCV replicon cells, 72 hours; for HCV replicon activity compared with control siRNA-treated cells: Huh-3-1 cells, siRNA 35 nM, four days. How it is done: (§1) Firefly luciferase HCV replicon cells (Huh-3-1) suspended in Dulbecco's MEM (Gibco Cat. No. 10569) containing 5% fetal bovine serum (Hyclone Cat. No. SH30071.03) were plated onto a 96-well plate at 5000 cells/well, and cultured overnight under 5% CO2 at 37° C. Approximately 20 hours later, fumonisin B1 was added to a final concentration of 1.37 μM to 1000 μM by carrying out a sequential three-fold dilution, and the cells were then cultured for three more days. The assay was carried out by preparing two types of assay plates: one an opaque white plate and the other a transparent plate. After culturing, the white plate was subjected to the Steady-Glo Luciferase Assay System (Promega Cat. No. E2520). More specifically, 100 μL of reagent was added to each well, mixed three to four times using a pipette, and then stood for five minutes before luminescence was measured using 1450 MicroBeta TRILUX (WALLAC). IC50 (50% inhibitory concentration) of a pharmaceutical agent was calculated by subtracting the value obtained without adding the cells as the background value from all of the values, and then defining the level of inhibition without addition of the pharmaceutical agent as 0%. A Cell Counting Kit-8 (DOJINDO Laboratories, Cat. No. 341-07761) was used for the cytotoxicity assays. 10 μL of reagent was added to each well, mixed three to four times using a pipette, and then stood for approximately 30 minutes; measurements were performed when OD450 nm reached approximately 1.0. IC50 (50% inhibitory concentration) of a pharmaceutical agent was calculated by subtracting the value obtained without adding the cells as the background value from all of the values, and then defining the level of inhibition without addition of the pharmaceutical agent as 0%.
(§2) Based on the results of Example 5, the following method was used to measure the effect on cytotoxicity and HCV replicon activity under conditions in which Huh-3-1 cells show reduced LCB1 expression. More specifically, cells were plated onto a 96-well plate at 3500 cells per well, and cultured overnight under 5% CO2 at 37° C. 1.75 μL of 2 μM siRNA was added to 23.3 μL of ECR buffer (buffer included in the RNAiFect Kit), this was stirred vigorously, and then 0.31 μL of RNAiFect transfection reagent was added. This was stirred gently at room temperature and then allowed to stand for ten minutes. siRNA was added to a final concentration of 35 nM, and this was cultured for four days. The effect on cytotoxicity was determined by adding 10 μL of Cell Counting Kit-8 (DOJINDO Laboratories Cat. No. 341-07761) to the medium, mixing three to four times using a pipette, and then allowing this to stand for one hour at 37° C. Absorbance was then measured at 450 nm using a microplate reader Emax (Molecular Devices). After incubation, the medium was exchanged for fresh medium, and the plate was subjected to the Steady-Glo Luciferase Assay System (Promega Cat. No. E2520). 100 μL of reagent was added to each well, mixed three to four times using a pipette, and then allowed to stand for five minutes. Luminescence was then measured using 1450 MicroBeta TRILUX (WALLAC) to determine the HCV replicon activity. IC50 (50% inhibitory concentration) of a pharmaceutical agent was calculated by subtracting the value obtained without adding the cells as the background value from all of the values, and then defining the level of inhibition without addition of the pharmaceutical agent as 0%.
First, to quantify the copy number of HCV-RNA, an RNA was constructed such that a firefly-derived luciferase gene was introduced into the HCV-RNA as a reporter gene. According to the method of Krieger et al. (J. Virol., 75: 4614), the luciferase gene was introduced immediately after the Internal Ribosome Entry Site (IRES) of the HCV gene, so that the gene was fused with the neomycin-resistance gene. […]
(A replicon is a self-replicating genome or part of one, used to study replication in cells.)

Series [2] is described as follows: in vitro. The following applies: human, Huh-3-1 replicon cells, three days, Cell Counting Kit-8; read-out: Cytotoxicity CC50. How it is done:
as §1, §2
(§3) A Cell Counting Kit-8 (DOJINDO Laboratories, Cat. No. 341-07761) was used for the cytotoxicity assays. More specifically, 10 μL of Cell Counting Kit-8 was added to the transparent plate, and this was warmed at 37° C. for 30 to 60 minutes. Using a 96-well plate reader, absorbance was measured at a wavelength of 450 nm with a reference wavelength of 630 nm. […]

The subject of series [3] is Huh-3-1 cells. Briefly: in vitro. The note with it: for CC50: Huh-3-1 replicon cells, three days, Cell Counting Kit-8, read-out: Cytotoxicity CC50; for effect of siRNA treatment on cytotoxicity: Huh-3-1 cells, siRNA 35 nM, four days. How it is done: as §1, §2, §3
In series [4] the test system is LCB1 (a subunit of the SPT heterodimer). Briefly: Inhibition of LCB1 protein expression by siRNAs, Western blotting. The note with it: Huh-3-1 cells, siRNA 35 nM, four days. On the procedure: 1.2×10^5 Huh-3-1 cells were plated onto a 6-well plate, and the cells were cultured overnight under 5% at 37° C. 2.3 μL of 20 μM siRNA was added to 100 μL of ECR buffer (a buffer included in the RNAiFect Kit), this was stirred vigorously, and after the addition of 4 μL of RNAiFect transfection reagent (Qiagen Cat. No. 301605) this was stirred gently at room temperature and allowed to stand for ten minutes. siRNA was added to a final concentration of 35 nM, and this was cultured for four days.
The cells were suspended in a cell lysis buffer (50 mM Tris-HCl (pH 7.5), 0.5% Triton, 3 mM EDTA, 150 mM NaCl, 12 mM glycerophosphate, 50 mM NaF, 1 mM Na3VO4, 0.5 mM PMSF, 0.5 mM aporotinin), and were allowed to stand on ice for ten minutes. This was centrifuged at 15,000×g for ten minutes, and the supernatant was collected. After quantifying the protein, the amount of protein in each sample was adjusted to 10 μg, and this was added to ¼ volume of 5×SDS sample buffer (125 mM Tris-HCl (pH 6.5), 25% Glycerol, 5% SDS, 0.25% BPB, 5% 2-Mercaptoethanol) and treated for five minutes at 98° C. […] The membranes were washed with 0.1% Tween 20/PBS, and then reacted for one minute with ECL, and the resulting signals were detected by autoradiography.
Background: Immunoblotting shows a protein as a band on a membrane.

Broadly, the IC50 is the concentration needed to halve the response being measured. What is called CC50 is the concentration that lowers cell viability or growth by half. With `CCCCCCCC(=O)CCCCCC/C=C/[C@H](C(=O)N[C@@H](Cc1ccc(C(F)(F)F)cc1)C(=O)O)[C@@](O)(CC(=O)O)C(=O)O` [(18)], the IC50 in series [1] (Hepatitis C virus, 72 h) is 0.068 µM. In addition, in series [2], the CC50 is over 1 µM.
Take `CCCCCCCC(=O)CCCCCC/C=C/[C@H](C(=O)N[C@@H](Cc1ccc(C#N)cc1)C(=O)O)[C@@](O)(CC(=O)O)C(=O)O` [(19)]: the IC50 in series [1] (Hepatitis C virus, 72 h) stood at 0.012 µM. Moreover, the CC50 in series [2] is over 1 µM.
The like results for `CCCCCCCC(=O)CCCCCC/C=C/[C@H](C(=O)N[C@@H](Cc1ccc(Cl)cc1)C(=O)O)[C@@](O)(CC(=O)O)C(=O)O` [(20)] were, in that order, 0.055 µM and over 1 µM.
The like results for `CCCCCCCC(=O)CCCCCC/C=C/[C@H](C(=O)N[C@@H](Cc1ccc([N+](=O)[O-])cc1)C(=O)O)[C@@](O)(CC(=O)O)C(=O)O` [(21)] were, in that order, 0.08 µM and over 1 µM.
On to `CCCCCCCC(=O)CCCCCC/C=C/[C@H](C(=O)N[C@@H](Cc1ccc(OCCCC)cc1)C(=O)O)[C@@](O)(CC(=O)O)C(=O)O` [(26)], for which the CC50 in series [2] was over 1 µM.
For the compound `CC(C)CCOc1ccc(C[C@H](NC(=O)[C@@H](/C=C/CCCCCCC(=O)CCCCC2CCCCC2)[C@](O)(CC(=O)O)C(=O)O)C(=O)O)cc1` [(38)], the IC50 in series [1] was 0.024 µM. In series [3], the CC50 is over 1 µM.
`CCCCCCCC(=O)CCCCCC/C=C/[C@H](C(=O)N[C@@H](Cc1ccc(OCC=C(C)C)cc1)C(=O)O)[C@@](O)(CC(=O)OC)C(=O)O` [(41)]: the cytotoxic concentration (CC50) in series [2] is over 1 µM.
As for `CCCCCCCC(=O)CCCCCC/C=C/[C@H](C(=O)N[C@@H](Cc1ccc(OCC=C(C)C)cc1)C(=O)OC)[C@@](O)(CC(=O)OC)C(=O)O` [(42)], in series [2], the CC50 was over 1 µM.
Same read-out and setting: for `CCCCCCC(O)C(=O)CCCCCC/C=C/[C@H](C(=O)N[C@@H](Cc1ccc(O)cc1)C(=O)O)[C@@](O)(CC(=O)O)C(=O)O` (stereo partly shown) [(43)] the value was over 1 µM; for `CCCCCCCC(=O)CCCCCC/C=C/[C@H](C(=O)N[C@@H](Cc1c[nH]c2ccccc12)C(=O)O)[C@@](O)(CC(=O)O)C(=O)O` [(44)], over 1 µM; for `CCCCCCC(O)C(=O)CCCCCC/C=C/[C@H](C(=O)N[C@@H](Cc1ccc(OCC=C(C)C)cc1)C(=O)O)[C@@](O)(CC(=O)O)C(=O)O` (stereo partly shown) [(45)], over 1 µM.
For `CCCCCCCC(CCCCCC/C=C/[C@H](C(=O)N[C@@H](Cc1ccc(OCC=C(C)C)cc1)C(=O)O)[C@@](O)(CC(=O)O)C(=O)O)=NOC` [(54)], the CC50 in series [2] was over 50 µM.
As to `CCCCCCCC(=O)CCCCCC/C=C/[C@H](C(=O)N[C@@H](Cc1ccc(OCCC(C)C)cc1)C(=O)O)[C@@](O)(CC(=O)O)C(=O)O` [Compound (46)], the CC50 in series [2] is over 5 µM.
Still for that read-out and setting: the result for `CCCCCCCC(O)CCCCCC/C=C/[C@H](C(=O)N[C@@H](Cc1ccc(OCC=C(C)C)cc1)C(=O)O)[C@@](O)(CC(=O)O)C(=O)O` (stereo partly shown) [Compound (47)] reads over 5 µM; that for `CCCCCCCC(=O)CCCCCC/C=C/[C@H](C(=O)N[C@@H](Cc1ccc(O)cc1)C(=O)O)[C@@](O)(CC(=O)O)C(=O)O` [Compound (48)], over 5 µM; that for `CCCCCCCC(=O)CCCCCCCC[C@H](C(=O)N[C@@H](Cc1ccc(O)cc1)C(=O)O)[C@@](O)(CC(=O)O)C(=O)O` [Compound (49)], over 50 µM.
Still for that read-out and setting: for `CCCCCCCC(=O)CCCCCC/C=C/[C@H](C(=O)N[C@@H](Cc1ccc(OCC=C(C)C)cc1)C(N)=O)[C@@](O)(CC(N)=O)C(N)=O` [Compound (50)] the value was over 5 µM.
On to `CCCCCCCC(=O)CCCCCC/C=C/[C@H](C(=O)N[C@@H](Cc1ccc(OCC=C(C)C)cc1)C(=O)O)[C@@](O)(CC(=O)O)C(=O)O` [Compound (51)], for which the IC50 in series [1] stood at 0.072 µM. Besides, the CC50 in series [3] was over 5 µM.
Regarding `CCCCCCCCCCCCCC/C=C/[C@H](C(=O)N[C@@H](Cc1ccc(OCC=C(C)C)cc1)C(=O)O)[C@@](O)(CC(=O)O)C(=O)O` [Compound (52)], the IC50 in series [1] (Hepatitis C virus, 72 h) turned out to be 0.1 µM. Besides, the CC50 in series [2] is over 50 µM.
Take `CCCCCCCCCCCC(=O)N[C@@H](CO)C[C@H](O)c1ccccc1` [HPA-12, reference compound]: the “HCV replication (replicon activity) versus viable cell count” value in series [1] is recorded as “suppressing the HCV replication at non-cytotoxic concentrations”.
On the same count and under the same terms, the result for `CCCC[C@@H](C)[C@@H](OC(=O)C[C@@H](CC(=O)O)C(=O)O)[C@H](C[C@@H](C)C[C@H](O)CCCC[C@@H](O)C[C@H](O)[C@H](C)N)OC(=O)C[C@@H](CC(=O)O)C(=O)O` [fumonisin B1, reference compound] reads “suppressing the HCV replication at non-cytotoxic concentrations”.
On to “si246: siRNA targeting LCB1, a subunit of the SPT heterodimer; SEQ ID NO: 1 (CAUCGUUUCAGGCCCUCCATT; chemistry not given here)”, for which the “HCV replicon activity compared with control siRNA-treated cells” value in series [1] is recorded as “strong inhibitory effect”. In addition, the “effect of siRNA treatment on cytotoxicity” value in series [3] is recorded as “almost no effect”. Besides, the “LCB1 protein expression compared with control siRNA” value in series [4] is on record as “Particularly strong inhibition of expression”.
The matching figures for “si633: siRNA targeting LCB1, a subunit of the SPT heterodimer; SEQ ID NO: 2 (UGACAUGGCUGACCUCGAGTT; chemistry not given here)”: “significantly inhibited”, “almost no effect” and “decrease the level of LCB1 protein expression”.
